{"source": "patent US20250041247A1", "about": "“SMALL MOLECULE INHIBITORS OF REPEAT ASSOCIATED NON-AUG (RAN) TRANSLATION AND COMBINATION THERAPIES” (University of Florida Research Foundation, Incorporated, priority 2021, published 2025)", "key": {"poly-Ala RAN proteins": {"system": "poly-Ala RAN proteins", "assay": "Protein blots for poly-Ala RAN proteins in HEK293T cells transfected with CAG expansion constructs", "type": "cell-based", "details": "treatment with different concentrations of quercetin, or metformin", "from_the_text": "cDNA constructs. […] Antibodies. […] Western blotting. […] Quantification and statistical analysis."}, "[1]": {"system": "C9orf72 ALS/FTD mice (C9)", "assay": "DigiGait gait analysis", "type": "in vivo", "details": "18 week female mice", "procedure": "Gait analysis. Digital video images of the underside of the mouse were collected with a high-speed video camera from below the transparent belt of a motorized treadmill (DigiGait™ Imaging system, Mouse Specific). Female C9orf72 ALS/FTD mice (C9) mice and their littermates (non-transgenic mice (NT)) were tested at 18 weeks of age with treatment beginning at 8 weeks of age. Each mouse was allowed to explore the treadmill compartment with the motor speed set to 14 cm/s for 1 min, then the motor speed was increased to 24c m/s for video recording. Only video recordings in which the mouse walked straight ahead with a constant relative position with respect to the camera were used for analysis. Data from each hind paw was analyzed with DigiGait automated gait analysis software (Mouse Specifics). For additional details, see Neuron, 2016, 90(3), 521-34. doi: 10.1016/j.neuron.2016.04.005. Mock treatment is vehicle only, meaning chow without quercetin."}, "[2]": {"details": "Quercetin-NT vs Quercetin C9, significance"}}, "data": [{"smiles": "CN(C)C(=N)NC(=N)N", "note": "[metformin]", "values": [{"measurement": "polyAla RAN proteins expressed from (CAG)exp", "setting": "poly-Ala RAN proteins", "result": "reduction"}]}, {"smiles": "O=c1c(O)c(-c2ccc(O)c(O)c2)oc2cc(O)cc(O)c12", "note": "[quercetin]", "values": [{"measurement": "13 gait abnormalities found between C9orf72 ALS/FTD mice (C9) vs. non-transgenic (NT) mice", "setting": "[1]; DigiGait, treatment beginning at 8 weeks, quercetin in chow", "result": "corrected"}, {"measurement": "Absolute PawAngle (deg)", "setting": "[1]; [2]", "result": "ns"}, {"measurement": "Ataxia Coefficient (real#)", "setting": "[1]; [2]", "result": "ns"}, {"measurement": "Axis Distance (cm/s)", "setting": "[1]; [2]", "result": "ns"}, {"measurement": "Brake (s)", "setting": "[1]; [2]", "result": "ns"}, {"measurement": "BrakeStance (%)", "setting": "[1]; [2]", "result": "ns"}, {"measurement": "BrakeStride (%)", "setting": "[1]; [2]", "result": "ns"}, {"measurement": "Gait Symmetry (real#)", "setting": "[1]; [2]", "result": "ns"}, {"measurement": "Hind Limb Shared Stance Time (s)", "setting": "[1]; [2]", "result": "ns"}, {"measurement": "MAX dA/dT (cm^2/s)", "setting": "[1]; [2]", "result": "ns"}, {"measurement": "MIN dA/dT (cm^2/s)", "setting": "[1]; [2]", "result": "ns"}, {"measurement": "Midline Distance (cm)", "setting": "[1]; [2]", "result": "ns"}, {"measurement": "Overlap Distance (cm)", "setting": "[1]; [2]", "result": "ns"}, {"measurement": "Paw Angle Variability (deg)", "setting": "[1]; [2]", "result": "ns"}, {"measurement": "Paw Area Variability at Peak Stance in sq. cm (cm^2)", "setting": "[1]; [2]", "result": "ns"}, {"measurement": "Paw Area at Peak Stance in sq. cm (cm^2)", "setting": "[1]; [2]", "result": "ns"}, {"measurement": "Paw Drag (real#)", "setting": "[1]; [2]", "result": "ns"}, {"measurement": "PawAngle (deg)", "setting": "[1]; [2]", "result": "ns"}, {"measurement": "PawPlacementPositioning[PPP] (cm)", "setting": "[1]; [2]", "result": "ns"}, {"measurement": "Propel (s)", "setting": "[1]; [2]", "result": "ns"}, {"measurement": "PropelStance (%)", "setting": "[1]; [2]", "result": "ns"}, {"measurement": "PropelStride (%)", "setting": "[1]; [2]", "result": "ns"}, {"measurement": "SLVar (cm)", "setting": "[1]; [2]", "result": "ns"}, {"measurement": "SWVar (cm)", "setting": "[1]; [2]", "result": "ns"}, {"measurement": "Shared Stance (%)", "setting": "[1]; [2]", "result": "ns"}, {"measurement": "Stance (s)", "setting": "[1]; [2]", "result": "ns"}, {"measurement": "Stance/Swing (real#)", "setting": "[1]; [2]", "result": "ns"}, {"measurement": "StanceFactor (real#)", "setting": "[1]; [2]", "result": "ns"}, {"measurement": "StanceStride (%)", "setting": "[1]; [2]", "result": "ns"}, {"measurement": "StanceWidth (cm)", "setting": "[1]; [2]", "result": "ns"}, {"measurement": "StepAngle (deg)", "setting": "[1]; [2]", "result": "ns"}, {"measurement": "StepAngle Var (deg)", "setting": "[1]; [2]", "result": "ns"}, {"measurement": "Steps (real#)", "setting": "[1]; [2]", "result": "ns"}, {"measurement": "Stride (s)", "setting": "[1]; [2]", "result": "ns"}, {"measurement": "Stride Frequency (steps/s)", "setting": "[1]; [2]", "result": "ns"}, {"measurement": "StrideLength (cm)", "setting": "[1]; [2]", "result": "ns"}, {"measurement": "Swing (%)", "setting": "[1]; [2]", "result": "ns"}, {"measurement": "SwingStride (%)", "setting": "[1]; [2]", "result": "ns"}, {"measurement": "Tau - Propulsion (real#)", "setting": "[1]; [2]", "result": "ns"}, {"measurement": "polyAla RAN proteins expressed from (CAG)exp", "setting": "poly-Ala RAN proteins", "result": "reduction"}]}]}
